Results: the supplement of paper PMC8671470

Key:
Conditions in all cases: 72 h
HL-60 [1] = assay: cell viability (% survival relative to DMSO control, bortezomib = 0%); higher = less cytotoxic
Summary of the method: (§1)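 Percent survival is reported as the mean of duplicate wells. Cells from 10 AML and 5 CML lines were plated in 384-well plates containing compounds at 1, 10, 100, 1000 or 10000 nM and kept for 72 h at 37 °C in 5% CO2. Readout used CellTiter-Glo luminescence, scaled so that vehicle equals 100% and a 10 µM positive control equals 0%.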

BV-173 [2] = assay: as above
Summary of the method: as §1

ML-2 [3] = assay: as above
Summary of the method: as §1

Mono-Mac-6 [4] = assay: as above
Summary of the method: as §1

THP-1 [5] = assay: as above
Summary of the method: as §1

KU-812 [6] = assay: as above
Summary of the method: as §1

SHI-1 [7] = assay: as above
Summary of the method: as §1

MV4-11 [8] = assay: as above
Summary of the method: as §1

K-562 [9] = assay: as above
Summary of the method: as §1

KCL-22 [10] = assay: as above
Summary of the method: as §1

NOMO-1 [11] = assay: as above
Summary of the method: as §1

HEL [12] = assay: as above
Summary of the method: as §1

MOLM-13 [13] = assay: as above
Summary of the method: as §1

KG-1 [14] = assay: as above
Summary of the method: as §1

HL-60 [15] = tested on: HL-60
Summary of the method: (§2)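 For the IC50, dose–response curves were fitted with a log-logistic model. The data came from fifteen myeloid leukaemia cell lines grown in RPMI 1640 at densities in the linear growth range and incubated in 384-well plates for 72 h at 37 °C under 5% CO2. Doses were five tenfold steps from 1 to 10,000 nM in duplicate, and luminescent ATP viability was normalised to vehicle and to a positive control at 10 µM before four-parameter fitting.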

BV-173 [16] = tested on: BV-173
Summary of the method: as §2

ML-2 [17] = tested on: ML-2
Summary of the method: as §2

Mono-Mac-6 [18] = tested on: Mono-Mac-6
Summary of the method: as §2

THP-1 [19] = tested on: THP-1
Summary of the method: as §2

KU-812 [20] = tested on: KU-812
Summary of the method: as §2

SHI-1 [21] = tested on: SHI-1
Summary of the method: as §2

MV4-11 [22] = tested on: MV4-11
Summary of the method: as §2

K-562 [23] = tested on: K-562
Summary of the method: as §2

KCL-22 [24] = tested on: KCL-22
Summary of the method: as §2

NOMO-1 [25] = tested on: NOMO-1
Summary of the method: as §2

HEL [26] = tested on: HEL
Summary of the method: as §2

MOLM-13 [27] = tested on: MOLM-13
Summary of the method: as §2

LAMA-84 = tested on: LAMA-84
Summary of the method: as §2

KG-1 [28] = tested on: KG-1
Summary of the method: as §2

HL-60 [29] = assay: area under dose-response curve (viability, 1 nM-10 uM) (fraction (0-1)); higher = more sensitive
Summary of the method: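 In 384-well plates, the full library was rescreened in duplicate on HL-60 cells in RPMI 1640 with 10% FBS, at 1–10,000 nM in five tenfold concentrations, for 72 h at 37 °C, 5% CO2. Each run also held DMSO or 100 nM of one of three metabolic inhibitors. Viability was measured by CellTiter-Glo and normalised to DMSO wells and to wells with proteasome inhibitor, present at 10 μM. Any area under the curve comes from four-parameter log-logistic fitting with drc and PharmacoGx.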

CC(C)(C#N)c1cc(Cn2cncn2)cc(C(C)(C)C#N)c1 [Anastrozole]
Conditions | area under dose-response curve, co-treatment: AZD3965 100 nM | area under dose-response curve, co-treatment: DMSO vehicle | area under dose-response curve, co-treatment: GSK2194069 100 nM | area under dose-response curve, co-treatment: pictilisib 100 nM | cell viability, 1 nM [%] | cell viability, 10 nM [%] | cell viability, 100 nM [%] | cell viability, 1000 nM [%] | cell viability, 10000 nM [%]
BV-173 [2] | – | – | – | – | 104 | 89.4 | 104 | 95.9 | 104
HEL [12] | – | – | – | – | 92.8 | 96.5 | 105 | 97.1 | 105
HL-60 [1] | – | – | – | – | 103 | 99.7 | 89.3 | 93.8 | 91.6
HL-60 [29] | < 0.0301 | < 0.0301 | < 0.0301 | < 0.0301 | – | – | – | – | –
K-562 [9] | – | – | – | – | 109 | 95.3 | 106 | 93.2 | 92.1
KCL-22 [10] | – | – | – | – | 102 | 91.6 | 111 | 91.7 | 102
KG-1 [14] | – | – | – | – | 98.4 | 97.2 | 103 | 92 | 93.8
KU-812 [6] | – | – | – | – | 86.1 | 90.6 | 100 | 90.5 | 90
ML-2 [3] | – | – | – | – | 106 | 100 | 106 | 90.5 | 93
MOLM-13 [13] | – | – | – | – | 97.4 | 90.8 | 88.2 | 104 | 103
MV4-11 [8] | – | – | – | – | 116 | 99.4 | 92.9 | 87.8 | 96.4
Mono-Mac-6 [4] | – | – | – | – | 103 | 102 | 111 | 102 | 89.7
NOMO-1 [11] | – | – | – | – | 90.6 | 103 | 96.4 | 99.6 | 102
SHI-1 [7] | – | – | – | – | 108 | 94.5 | 102 | 101 | 103
THP-1 [5] | – | – | – | – | 102 | 93.4 | 99.8 | 99.9 | 96.3

Conditions | IC50 (cell viability) [µM]
BV-173 [16] | > 10
HEL [26] | > 10
HL-60 [15] | > 10
K-562 [23] | > 10
KCL-22 [24] | > 10
KG-1 [28] | > 10
KU-812 [20] | > 10
LAMA-84 | > 10
ML-2 [17] | > 10
MOLM-13 [27] | > 10
MV4-11 [22] | > 10
Mono-Mac-6 [18] | > 10
NOMO-1 [25] | > 10
SHI-1 [21] | > 10
THP-1 [19] | > 10

COc1cc(/C=C/C(=O)N2CCC=CC2=O)cc(OC)c1OC [Piperlongumine]
Conditions | area under dose-response curve, co-treatment: AZD3965 100 nM | area under dose-response curve, co-treatment: DMSO vehicle | area under dose-response curve, co-treatment: GSK2194069 100 nM | area under dose-response curve, co-treatment: pictilisib 100 nM | cell viability, 1 nM [%] | cell viability, 10 nM [%] | cell viability, 100 nM [%] | cell viability, 1000 nM [%] | cell viability, 10000 nM [%]
BV-173 [2] | – | – | – | – | 93.3 | 99.9 | 101 | 71.4 | -0.383
HEL [12] | – | – | – | – | 90.1 | 111 | 103 | 97.5 | -0.0957
HL-60 [1] | – | – | – | – | 92.7 | 100 | 102 | 85.7 | 0.441
HL-60 [29] | 0.131 | 0.134 | 0.156 | 0.153 | – | – | – | – | –
K-562 [9] | – | – | – | – | 102 | 91.5 | 106 | 77.3 | 0.672
KCL-22 [10] | – | – | – | – | 92.3 | 109 | 90.3 | 93.5 | 1.29
KG-1 [14] | – | – | – | – | 98.4 | 102 | 93.1 | 98.3 | 4.3
KU-812 [6] | – | – | – | – | 94.6 | 110 | 94.9 | 92.2 | 3.51
ML-2 [3] | – | – | – | – | 102 | 100 | 92.8 | 72.6 | -0.133
MOLM-13 [13] | – | – | – | – | 98.6 | 87.6 | 99.5 | 75.7 | 0.668
MV4-11 [8] | – | – | – | – | 95 | 90.4 | 89.7 | 44.4 | -0.271
Mono-Mac-6 [4] | – | – | – | – | 94.3 | 107 | 98.7 | 86.5 | 1.58
NOMO-1 [11] | – | – | – | – | 94.9 | 103 | 105 | 100 | 0.949
SHI-1 [7] | – | – | – | – | 100 | 98.3 | 106 | 89 | 0.583
THP-1 [5] | – | – | – | – | 103 | 93.9 | 101 | 88 | -0.152

Conditions | IC50 (cell viability) [µM]
BV-173 [16] | 1.62
HEL [26] | 3.03
HL-60 [15] | 2.36
K-562 [23] | 1.95
KCL-22 [24] | 2.92
KG-1 [28] | 3.33
KU-812 [20] | 2.87
LAMA-84 | 3.22
ML-2 [17] | 1.66
MOLM-13 [27] | 1.93
MV4-11 [22] | 0.959
Mono-Mac-6 [18] | 2.38
NOMO-1 [25] | 3.22
SHI-1 [21] | 2.53
THP-1 [19] | 2.45
